Laboratory results from publication PMC4965013, “Open Source Drug Discovery with the Malaria Box Compound Collection for Neglected Diseases and Beyond” (PLoS Pathogens, 2016).

Experiments:
[1] = system: P. falciparum 3D7 trophozoites; assay: Metabolomic fingerprint profiling LC-MS; format: cell-based, Plasmodium falciparum; set-up: UDP-D-glucose / ADP-D-glucose: unit not given here; conditions: for Acetyllysine / N-acetyl-L-ornithine / N-carbamoyl-L-aspartate / NADPH / dAMP / dCMP / dTDP / dTMP / dTTP / dihydroorotate / orotate / DLH / DLS/SDL/SID / PD / PEE / PVNF / 3-phosphoglycerate / ADP-D-glucose / ATP / CDP / D-sedoheptulose-1/7-phosphate / FAD / GMP / NAD+ / NADP+ / Octoluse Bisphosphate / Pyroglutamic acid / UDP-D-glucose / UDP-D-glucuronate / UDP-N-acetyl-glucosamine / UDP / UMP / UTP / a-ketoglutarate / citrate/isocitrate / cytidine / dATP / dGMP/AMP / fumarate / glucose-1/6-phosphate / glycerate / guanine / guanosine / hypoxanthine / indole / inosine / nicotinate / ornithine / phosphoenolpyruvate / pyruvate / ribose-phosphate / sarcosine/alanine / sn-glycerol-3-phosphate / succinate/methylmalonic acid / uridine / xanthosine: S2 Table Metabolomics; for Acetyllysine: metabolite Acetyllysine; for N-acetyl-L-ornithine: metabolite N-acetyl-L-ornithine; for N-carbamoyl-L-aspartate: metabolite N-carbamoyl-L-aspartate; for NADPH: metabolite NADPH; for dAMP: metabolite dAMP; for dCMP: metabolite dCMP; for dTDP: metabolite dTDP; for dTMP: metabolite dTMP; for dTTP: metabolite dTTP; for dihydroorotate: metabolite dihydroorotate; for orotate: metabolite orotate; for DLH: peptide DLH; for DLS/SDL/SID: peptide DLS/SDL/SID; for PD: peptide PD; for PEE: peptide PEE; for PVNF: peptide PVNF; for 3-phosphoglycerate: metabolite 3-phosphoglycerate; for ADP-D-glucose: metabolite ADP-D-glucose; for ATP: metabolite ATP; for CDP: metabolite CDP; for CDP / D-sedoheptulose-1/7-phosphate / GMP / Octoluse Bisphosphate / UDP / UMP / UTP / citrate/isocitrate / dGMP/AMP / fumarate / glucose-1/6-phosphate / glycerate / guanine / guanosine / inosine / pyruvate / sarcosine/alanine / succinate/methylmalonic acid / uridine / xanthosine: change in metabolite level after compound treatment; for D-sedoheptulose-1/7-phosphate: metabolite D-sedoheptulose-1/7-phosphate; for FAD: metabolite FAD; for GMP: metabolite GMP; for NAD+: metabolite NAD+; for NADP+: metabolite NADP+; for Octoluse Bisphosphate: metabolite Octoluse Bisphosphate; for Pyroglutamic acid: metabolite Pyroglutamic acid; for UDP-D-glucose: metabolite UDP-D-glucose; for UDP-D-glucuronate: metabolite UDP-D-glucuronate; for UDP-N-acetyl-glucosamine: metabolite UDP-N-acetyl-glucosamine; for UDP: metabolite UDP; for UMP: metabolite UMP; for UTP: metabolite UTP; for a-ketoglutarate: metabolite a-ketoglutarate; for citrate/isocitrate: metabolite citrate/isocitrate; for cytidine: metabolite cytidine; for dATP: metabolite dATP; for dGMP/AMP: metabolite dGMP/AMP; for fumarate: metabolite fumarate; for glucose-1/6-phosphate: metabolite glucose-1/6-phosphate; for glycerate: metabolite glycerate; for guanine: metabolite guanine; for guanosine: metabolite guanosine; for hypoxanthine: metabolite hypoxanthine; for indole: metabolite indole; for inosine: metabolite inosine; for 2_3-Diphosphoglyceric acid / 4-phosphopantothenate / 6-phospho-D-gluconate / FMN / IMP / Pyrophosphate / Sedoheptoluse bisphosphate / cyclic-AMP / glutathione disulfide / lactate / myo-inositol: metabolite level change after treatment; for nicotinate: metabolite nicotinate; for ornithine: metabolite ornithine; for phosphoenolpyruvate: metabolite phosphoenolpyruvate; for pyruvate: metabolite pyruvate; for ribose-phosphate: metabolite ribose-phosphate; for sarcosine/alanine: metabolite sarcosine/alanine; for sn-glycerol-3-phosphate: metabolite sn-glycerol-3-phosphate; for succinate/methylmalonic acid: metabolite succinate/methylmalonic acid; for uridine: metabolite uridine; for xanthosine: metabolite xanthosine
P. falciparum = assay: EC50 listed in S2 Table Metabolomics (used to set the concentration tested); format: cell-based; conditions: Plasmodium falciparum; EC50 used for Factor_XEC50 in metabolomics; read-out: EC50_nM

CCOC(=O)c1cnc2c(C)cc(C)cc2c1Nc1ccc(OC)c(OC)c1 [MMV008294]
Acetyllysine [1]: -0.3425 | N-acetyl-L-ornithine [1]: -0.09501 | N-carbamoyl-L-aspartate [1]: 2.682 | NADPH [1]: 1.75 | dAMP [1]: 0.2089 | dCMP [1]: -0.6198 | dTDP [1]: -0.4672 | dTMP [1]: -0.4876 | dTTP [1]: -1.144 | dihydroorotate [1]: 3.3871 | orotate [1]: -0.7416 | DLH [1]: -0.5675 | DLS/SDL/SID [1]: -0.4346 | PD [1]: -0.1287 | PEE [1]: -0.648 | PVNF [1]: -0.7723 | 3-phosphoglycerate [1]: -0.683 | ADP-D-glucose [1]: -0.352 | ATP [1]: -0.07176 | CDP [1]: -0.1705 | D-sedoheptulose-1/7-phosphate [1]: -0.3446 | FAD [1]: 0.0322 | GMP [1]: -0.1695 | NAD+ [1]: -0.3043 | NADP+ [1]: -0.3797 | Octoluse Bisphosphate [1]: -0.4297 | Pyroglutamic acid [1]: 0.3043 | UDP-D-glucose [1]: -0.27 | UDP-D-glucuronate [1]: -0.2831 | UDP-N-acetyl-glucosamine [1]: -0.5063 | UDP [1]: -0.5787 | UMP [1]: -1.283 | UTP [1]: -1.136 | a-ketoglutarate [1]: -0.236 | citrate/isocitrate [1]: 0.7822 | cytidine [1]: 0.0959 | dATP [1]: 1.0046 | dGMP/AMP [1]: -0.5258 | fumarate [1]: -0.9618 | glucose-1/6-phosphate [1]: 0.01885 | glycerate [1]: 0.4536 | guanine [1]: 0.3469 | guanosine [1]: 2.083 | hypoxanthine [1]: 0.2152 | indole [1]: 0.4569 | inosine [1]: 0.05445 | 2_3-Diphosphoglyceric acid [1]: -0.768 | 4-phosphopantothenate [1]: -0.7166 | 6-phospho-D-gluconate [1]: -0.1153 | FMN [1]: 0.06908 | IMP [1]: -0.2706 | Pyrophosphate [1]: -0.2511 | Sedoheptoluse bisphosphate [1]: -0.4052 | cyclic-AMP [1]: -0.1956 | glutathione disulfide [1]: -0.2281 | lactate [1]: 0.2967 | myo-inositol [1]: 0.2424 | nicotinate [1]: 0.04647 | ornithine [1]: -0.4808 | phosphoenolpyruvate [1]: -0.6158 | pyruvate [1]: 0.09912 | ribose-phosphate [1]: -0.7165 | sarcosine/alanine [1]: -0.5269 | sn-glycerol-3-phosphate [1]: -0.7886 | succinate/methylmalonic acid [1]: 0.008672 | uridine [1]: -0.03724 | xanthosine [1]: 0.1462 | EC50 (P. falciparum): 232 nM

CCOc1cc2c(cc1OCC)C(c1cc(OC)c(O)cc1Cl)NCC2 (stereo not shown) [MMV008956]
Acetyllysine [1]: -0.8944 | N-acetyl-L-ornithine [1]: -0.5916 | N-carbamoyl-L-aspartate [1]: 0.571 | NADPH [1]: 0.6672 | dAMP [1]: 1.243 | dCMP [1]: 4.619 | dTDP [1]: 1.146 | dTMP [1]: 1.439 | dTTP [1]: 1.156 | dihydroorotate [1]: 1.1855 | orotate [1]: -0.3284 | DLH [1]: -3.711 | DLS/SDL/SID [1]: -0.5828 | PD [1]: -0.4938 | PEE [1]: -0.813 | PVNF [1]: -0.872 | 3-phosphoglycerate [1]: 0.6004 | ADP-D-glucose [1]: 0.1393 | ATP [1]: 0.8747 | CDP [1]: 1.061 | D-sedoheptulose-1/7-phosphate [1]: 0.1684 | FAD [1]: 0.6779 | GMP [1]: -0.4979 | NAD+ [1]: 0.03875 | NADP+ [1]: 0.5626 | Octoluse Bisphosphate [1]: 0.08662 | Pyroglutamic acid [1]: 0.4321 | UDP-D-glucose [1]: 0.1438 | UDP-D-glucuronate [1]: 0.2178 | UDP-N-acetyl-glucosamine [1]: 0.5265 | UDP [1]: 1.214 | UMP [1]: 0.03068 | UTP [1]: 0.582 | a-ketoglutarate [1]: -0.2514 | citrate/isocitrate [1]: -0.7004 | cytidine [1]: 0.5985 | dATP [1]: 0.6577 | dGMP/AMP [1]: 0.5512 | fumarate [1]: -0.2713 | glucose-1/6-phosphate [1]: 2.3505 | glycerate [1]: 0.6776 | guanine [1]: 0.5662 | guanosine [1]: -1.286 | hypoxanthine [1]: 0.3973 | indole [1]: -0.009638 | inosine [1]: -0.3408 | 2_3-Diphosphoglyceric acid [1]: 1.008 | 4-phosphopantothenate [1]: 0.721 | 6-phospho-D-gluconate [1]: 0.8262 | FMN [1]: 0.6429 | IMP [1]: 0.4913 | Pyrophosphate [1]: -0.1587 | Sedoheptoluse bisphosphate [1]: 0.3697 | cyclic-AMP [1]: 0.7848 | glutathione disulfide [1]: 0.5413 | lactate [1]: 1.983 | myo-inositol [1]: 3.051 | nicotinate [1]: 0.3445 | ornithine [1]: -0.06192 | phosphoenolpyruvate [1]: 0.186 | pyruvate [1]: 0.4759 | ribose-phosphate [1]: 0.1544 | sarcosine/alanine [1]: -0.3792 | sn-glycerol-3-phosphate [1]: 0.3263 | succinate/methylmalonic acid [1]: -0.2652 | uridine [1]: 0.5193 | xanthosine [1]: -1.526 | EC50 (P. falciparum): 370 nM
